Measurements as given in US5464617A, “β-lactam compounds” (Hoffmann-La Roche Inc., priority 1994, dated 1995).
Values after ≈ are worked out from the molar mass of the structure shown. Where a name gives a salt, the structure may show the parent alone.

Key:
[1] = tested on: Citrobacter freundii 1982; assay: MIC in vitro of a 1:4 combination of ceftriaxone with a compound of formula I (Test D); assay type: cell-based; details: 1:4 combination of ceftriaxone with the compound; for MIC C. freundii 1982 (D): Table 4, test D; for MIC C. freundii 1982: Table 2
Protocol: The minimum inhibitory concentration in vitro ([…]) of a 1:4 combination of ceftriaxone with a compound of formula I against Citrobacter freundii 1982 was measured and compiled in Table 2 hereinafter.

[2] = tested on: E. coli 1346; assay: Antibacterial activity of the products per se, serial dilution method in liquid medium (Test E); assay type: cell-based; details: product per se; for MIC E. coli 1346 (E): Table 4, test E; for MIC E. coli 1346: Table 3, liquid medium
Description: The antibacterial activity of the products per se is illustrated on the basis of Table 3 hereinafter, the minimum inhibitory concentration […] in vitro against E. coli 1346 being determined using the serial dilution method in liquid medium: […]

Structure (SMILES)	MIC C. freundii 1982 (D) [1]	MIC E. coli 1346 (E) [2]	MIC C. freundii 1982 [1]	MIC E. coli 1346 [2]
CC(=O)N1C[C@H]2CC(SCC(N)=O)=C(C(=O)O)N3C(=O)[C@@H]1[C@@H]23 [3(ak), (1 aS,3aR,6bR)-2-Acetyl-5-carbamoylmethylsulphanyl-1-oxo-1a,2,3,3a,4,6b-hexahydro-1H-2,6a-diazacyclobut[cd]indene-6-carboxylic acid sodium salt]	4 µg/mL	16 µg/mL	–	–
NC(=O)c1ccc(NC(=O)N2C[C@H]3OC(CSc4ccncc4)=C(C(=O)O)N4C(=O)[C@@H]2[C@@H]34)cc1 [31(e), (1aS,3aR,6bS)-2-(4-Carbamoyl-phenylcarbamoyl)-1-oxo-5-(pyridin-4-ylsulphanylmethyl)-1,1a,2,3,3a,6 b-hexahydro-4-oxa-2,6a-diazacyclobut[cd]indene-6-carboxylic acid sodium salt]	0.5 µg/mL	> 32 µg/mL	–	–
O=CN1C[C@H]2OC(CSc3nnnn3CC(=O)NC3CC3)=C(C(=O)O)N3C(=O)[C@@H]1[C@@H]23 [Example 37, (1aS,3aR,6bS)-5-(1-Cyclopropylcarbamoylmethyl-1H-tetrazol-5-ylsulphanylmethyl)-2-formyl-1-oxo-1,1a,2,3,3a,6b-hexahydro-4-oxa-2,6a-diazacyclobut[cd]indene-6-carboxylic acid sodium salt]	32 µg/mL	32 µg/mL	–	–
COC(=O)CC1=C(C(=O)O)N2C(=O)[C@H]3NC[C@@H](C1)[C@H]32 [Example 12(b), (1aS,3aR,6bR)-5-Methoxycarbonylmethyl-1-oxo-1a,2,3,3a,4,6b-hexahydro-1H-2,6a-diazacyclobut[cd]indene-6-carboxylic acid trifluoroacetate]	–	–	4 µg/mL	8 µg/mL
Cn1nc(O)c(=O)nc1SCC1=C(C(=O)O)N2C(=O)[C@@H]3[C@H]2[C@H](C1)CN3C(=O)Nc1ccc(O)cc1 [Example 54, (1aS,3aR,6bR)-5-(2,5-Dihydro-6-hydroxy-2-methyl-5-oxo-1,2,4-triazin-3-ylsulphanylmethyl)-2-(4-hydroxy-phenylcarbamoyl)-1-oxo-1a,2,3,3a,4,6b-hexahydro-1H-2,6a-diazacydobut[cd]indene-6-carboxylic acid sodium salt (1:2)]	0.25 µg/mL	32 µg/mL	–	–
CC(=O)N1C[C@H]2CC(CSc3nnc(N)s3)=C(C(=O)O)N3C(=O)[C@@H]1[C@@H]23 [19(i), (1aS,3aR,6bR)-2-Acetyl-5-(5-amino-1,3,4-thiadiazol-2-ylsulphanylmethyl)-1-oxo-1a,2,3,3a,4,6b-hexahydro-1H-2,6a-diazacyclobut[cd]indene-6-carboxylic acid sodium salt]	1 µg/mL	0.5 µg/mL	–	–
NC(=O)OCC1=C(C(=O)O)N2C(=O)[C@@H]3[C@H]2[C@H](C1)CN3C(=O)CSc1ccncc1 [58(g), (1aS,3aR,6bR)-5-Carbamoyloxymethyl-1-oxo-2-pyridin-4-ylsulphanylacetyl-1a,2,3,3a,4,6b-hexahydro-1H-2,6a-diazacyclobut[cd]indene-6-carboxylic acid sodium salt]	0.25 µg/mL	8 µg/mL	–	–
O=C([O-])C[n+]1ccc(SCC2=C(C(=O)O)N3C(=O)[C@@H]4[C@H]3[C@H](C2)CN4C(=O)C(F)(F)F)cc1 [Example 52(b), (1aS,3aR,6bR)-[4-(2-Trifluoroacetyl-6-carboxy-1-oxo-1a,2,3,3a,4,6b-hexahydro-1H-2,6a-diazacyclobut[cd]inden-5-ylmethylsulphanyl)-pyridin-1-ylio]-acetate sodium salt]	1 µg/mL	2 µg/mL	–	–
CNC(=O)Cn1nnnc1SCC1=C(C(=O)O)N2C(=O)[C@@H]3[C@H]2[C@@H](CN3C(C)=O)O1 [32(f), (1aS,3aR, 6bS)-2-Acetyl-5-(1-methyl-carbamoylmethyl-1H-tetrazol-5-ylsulphanylmethyl)-1-oxo-1,1a,2,3,3a,6b-hexahydro-4-oxa-2,6a-diazacyclobut[cd]indene-6-carboxylic acid sodium salt]	8 µg/mL	4 µg/mL	–	–
C=CCOC(=O)N1C[C@H]2OC(CSc3nnnn3C)=C(C(=O)O)N3C(=O)[C@@H]1[C@@H]23 [29(e) Byproduct]	1 µg/mL	4 µg/mL (≈ 9.79 µM)	–	–
O=C(Nc1ccc(O)cc1)OCC1=C(C(=O)O)N2C(=O)[C@H]3NC[C@@H](C1)[C@H]32 [Example 89, (1aS,3aR,6bR)-5-(4-Hydroxy-phenylcarbamoyloxymethyl)-1-oxo-1a,2,3,3a,4,6b-hexahydro-1H-2,6a-diazacyclobut[cd]indene-6-carboxylic acid trifluoroacetate]	2 µg/mL	4 µg/mL	–	–
CC(=O)N1C[C@H]2SC(CSc3ccncc3)=C(C(=O)O)N3C(=O)[C@@H]1[C@@H]23 [42(b), (1aS,3aR,6bS)-2-Acetyl-1-oxo-5-(pyridin-4-ylsulphanylmethyl)-4-thia-1,1a,2,3,3a,6b-hexahydro-2,6a-diazacyclobut[cd]indene-6-carboxylic acid sodium salt]	2 µg/mL	0.5 µg/mL	–	–
Cc1nnc(SCC2=C(C(=O)[O-])N3C(=O)[C@@H]4[C@H]3[C@H](C2)CN4C(=O)C[n+]2cccc(C(N)=O)c2)s1 [65(d), (1aS,3aR,6bR)-2-(3-Carbamoyl-pyridin-1-ylioacetyl)-5-(5-methyl-1,3,4-thiadiazol-2-ylsulphanylmethyl)-1-oxo-1a,2,3,3a,4,6b-hexahydro-1H-2,6a-diazacyclobut[cd]indene-6-carboxylic acid sodium salt]	2 µg/mL	16 µg/mL	–	–
CS(=O)(=O)OC1=C(C(=O)O)N2C(=O)[C@@H]3[C@H]2[C@H](C1)CN3C(=O)NCc1cccs1 [9(c), (1aS,3aR,6bR)-5-Methylsulphonyloxy-2-(thien-2-ylmethylcarbamoyl)-1-oxo-1a,2,3,3a,4,6b-hexahydro-1H-2,6a-diazacyclobut[cd]indene-6-carboxylic acid sodium salt]	–	–	1 µg/mL	8 µg/mL
CC(=O)Nc1nnc(SCC2=C(C(=O)O)N3C(=O)[C@@H]4[C@H]3[C@H](C2)CN4C(C)=O)s1 [19(j), (1aS,3aR,6bR)-2-Acetyl-5-(5-acetylamino-1,3,4-thiadiazol-2-ylsulphanylmethyl)-1-oxo-1a,2,3,3a,4,6b-hexahydro-1H-2,6a-diazacyclobut[cd]indene-6-carboxylic acid sodium salt]	2 µg/mL	0.5 µg/mL	–	–
CC(=O)N1C[C@H]2CC(CSc3nnnn3CC(=O)Nc3ccc(O)cc3)=C(C(=O)O)N3C(=O)[C@@H]1[C@@H]23 [78(a), (1aS,3aR,6bR)-2-Acetyl-5-[1-(4-hydroxy-phenylcarbamoylmethyl)-1H-tetrazol-5-ylsulphanylmethyl]-1-oxo-1a,2,3,3a,4,6b-hexahydro-1H-2,6a-diazacyclobut[cd]indene-6-carboxylic acid sodium salt]	0.5 µg/mL	1 µg/mL	–	–
NC(=O)OCC1=C(C(=O)O)N2C(=O)[C@@H]3[C@H]2[C@H](C1)CN3CC(=O)Nc1ccc(O)cc1 [Example 59(a), (1aS,3aR,6bR)-5-Carbamoyloxymethyl-2-(4-hydroxyphenylcarbamoylmethyl)-1-oxo-I a,2,3,3a,4,6b-hexahydro-1H-2,6a-diazacyclobut[cd]indene-6-carboxylic acid sodium salt]	1 µg/mL	2 µg/mL	–	–
O=C(Cn1nnnc1SCC1=C(C(=O)O)N2C(=O)[C@@H]3[C@H]2[C@H](C1)CN3C(=O)C(F)(F)F)Nc1ccc(O)cc1 [78(b), (1aS,3aR,6bR)-5-[1-(4-Hydroxy-phenylcarbamoylmethyl)-1H-tetrazol-5-ylsulphanylmethyl]-1-oxo-2-trifluoroacetyl-1a,2,3,3a,4,6b-hexahydro-1H-2,6a-diazacyclobut[cd]indene-6-carboxylic acid sodium salt]	1 µg/mL	1 µg/mL	–	–
CNC(=O)Cn1nnnc1SCC1=C(C(=O)O)N2C(=O)[C@H]3NC[C@@H](C1)[C@H]32 [Example 73, (1aS,3aR,6bR)-5-(1-Methylcarbamoylmethyl-1H-tetrazol-5-ylsulphahylmethyl)-1-oxo-1a,2,3,3a,4,6b-hexahydro-1H-2,6 a-diazacyclobut[cd]indene-6-carboxylicacid trifluoroacetate]	1 µg/mL	1 µg/mL	–	–
CC(=O)N1C[C@H]2CC(Sc3nnc(C)s3)=C(C(=O)O)N3C(=O)[C@@H]1[C@@H]23 [3(ac), (1aS,3aR,6bR)-2-Acetyl-5-(5-methyl-1,3,4-thiadiazol-2-ylsulphanyl)-1-oxo-1a,2,3,3a,4,6b-hexahydro-1H-2,6a-diazacyclobut[cd]indene-6-carboxylic acid sodium salt]	4 µg/mL	8 µg/mL	–	–
O=C(NCc1ccncc1)OCC1=C(C(=O)O)N2C(=O)[C@H]3NC[C@@H](C1)[C@H]32 [Example 99, (1aS,3aR,6bR)-1-Oxo-5-(pyridin-4-ylmethylcarbamoyloxymethyl)-1a,2,3,3a,4,6b-hexahydro-1H-2,6a-diazacyclobut[cd]indene-6-carboxylic acid trifluoroacetate]	2 µg/mL	4 µg/mL	–	–
